The values that follow come from patent publication US9273285B1, “Shorter colony-forming cell assay” (STEMCELL TECHNOLOGIES INC., priority 2008, dated 2016).

The subject of this assay is Human CB mononuclear cells. The experiment in a line: Hematopoietic colony-forming cell (CFC) assay in methylcellulose-based MethoCult media. Set-up: key to Size, Morphology ranking: Ranking on the basis of colony size and morphology: 1 is best; 4 is worst. Conditions: for Colony numbers as percentage of colony numbers in medium without extra cytokines, Average: average of experiments. The protocol:
Frozen ficolled cord blood mononuclear cells were thawed, nucleated cells were counted by microscopy using a hemacytometer after dilution in 3% acetic acid to lyse mature erythrocytes. The cells were diluted with Iscove's MDM to 10-fold the desired cell concentration. 0.4 mL of the cell suspensions were added into an aliquot of test MethoCult® medium (4 mL) and mixed by vortexing. 1.1 mL of each cell/medium mixture was dispensed into triplicate 35 mm culture dishes using 3 mL syringes with blunt end needles, with 1.1 mL of medium per dish. All cultures were incubated for 4, 7, 10 or the standard 14 days at 37° C., 5% CO2, 100% humidity. Colonies were enumerated and classified by bright-field microscopy into the following categories based on size and morphology: CFU-E, BFU-E, CFU-GM, CFU-GEMM (StemCell Technologies, Colony Atlas). […]
Methocult® H4435 medium, which contains the 6 cytokines IL-3, IL-6, SCF, GM-CSF, G-CSF and EPO, was supplemented with Zinc Sulphate at final concentrations 2, 10 and 20 μM and 4 different CB samples were cultured for 7 and 14 days as described in Example 1. […] In one experiment, CFU-GM colonies were larger in the presence of zinc, whereas BFU-E colony size was unchanged.
To examine if adding extra cytokines can further increase colony growth, culture medium as in Example 5 was supplemented with FL, TPO or both. Cultures were set up using Cord Blood cells and colonies were counted after 7 and 14 days. […] In three of the four experiments colony size and morphology after 14 days were very similar whether or not TPO and/or FL were present in the medium. In one experiment (Exp 4 in Table 2) colonies were slightly larger in cultures without TPO and FL compared to cultures with TPO and FL. […]

Setting [1] is: Exp. 1, 7 days, added to MethoCult medium with IL-3, IL-6, G-CSF, GM-CSF, SCF, EPO, cord blood.

In the case of `O=S(=O)([O-])[O-].[Zn+2]` [Zinc Sulphate], the “total colony numbers on day 7 and 14 relative to media containing no Zinc, or 2 μM of Zinc” value (10 or 20 μM in Methocult H4435, 4 CB samples (FIG. 4)) is given as “increased”. For the same molecule, where the note is “in Methocult H4435, 3 of the 4 experiments”, the “Effect on colony size after 14 days of culture” value was “no effects of zinc on colony size was observed”. For the same molecule, the “Colony size and morphology on day 7 compared to zinc-free medium” value (in Methocult H4435, particularly at 10 and 20 uM, three of 4 experiments) is “the colonies were larger, and more evenly spread out”.
With Thrombopoietin [TPO], the “Colony numbers as percentage of colony numbers in medium without extra cytokines” value (Exp. 1, 7 days) is 78%; the “Colony numbers as percentage of colony numbers in medium without extra cytokines” value (Exp. 1, 14 days) came out at 93%; the “Colony numbers as percentage of colony numbers in medium without extra cytokines” value (Exp. 2, 7 days) is on record as 102%; the “Colony numbers as percentage of colony numbers in medium without extra cytokines” value (Exp. 2, 14 days) turned out to be 102%; the “Colony numbers as percentage of colony numbers in medium without extra cytokines” value (Exp. 3, 7 days) came to 107%; the “Colony numbers as percentage of colony numbers in medium without extra cytokines” value (Exp. 3, 14 days) is 107%. Moreover, the “Size, Morphology ranking” value was found to be 2 (Exp. 1, 7 days); 1 (Exp. 1, 14 days); 1 (Exp. 2, 7 days); 1 (Exp. 2, 14 days); 2 (Exp. 3, 7 days); 1 (Exp. 3, 14 days). Further, the “Colony numbers per 10^5 cells plated” value was found to be 210 per 10^5 cells plated under setting [1]; 287 per 10^5 cells plated (Exp. 1, 14 days); 393 per 10^5 cells plated (Exp. 2, 7 days); 480 per 10^5 cells plated (Exp. 2, 14 days); 317 per 10^5 cells plated (Exp. 3, 7 days); 360 per 10^5 cells plated (Exp. 3, 14 days). For the same molecule, the “Colony numbers as percentage of colony numbers in medium without extra cytokines, Average” value is 95% (7 days) and 101% (14 days).

B1: FLT-3 Ligand (protein, UniProt P49771 27-235, looked up)
Fms-related tyrosine kinase 3 …: TQDCSFQHSPISSDFAVKIRELSDYLLQDYPVTVASNLQDEELCGGLWRLVLAQRWMERLKTVAGSKMQGLLERVNTEIHFVTKCAFQPPPSCLRFVQTNISRLLQETSEQLVALKPWITRQNFSRCLELQCQPDSSTLPPPWSPRPLEATAPTAPQPPLLLLLLLPVGLLLLAAAWCLHWQRTRRRTPRPGEQVPPVPSPQDLLLVEH
notes: cytokine added to the culture medium
Consider B1, for which the “Colony numbers as percentage of colony numbers in medium without extra cytokines” value by setting is: (Exp. 1, 7 days) 99%; (Exp. 1, 14 days) 110%; (Exp. 2, 7 days) 107%; (Exp. 2, 14 days) 99%; (Exp. 3, 7 days) 99%; (Exp. 3, 14 days) 94%. The “Size, Morphology ranking” value worked out at 2 (Exp. 1, 7 days); 1 (Exp. 1, 14 days); 2 (Exp. 2, 7 days); 1 (Exp. 2, 14 days); 3 (Exp. 3, 7 days); 1 (Exp. 3, 14 days). For the same molecule, the “Colony numbers per 10^5 cells plated” value by setting is: under setting [1], 267 per 10^5 cells plated; (Exp. 1, 14 days) 337 per 10^5 cells plated; (Exp. 2, 7 days) 413 per 10^5 cells plated; (Exp. 2, 14 days) 463 per 10^5 cells plated; (Exp. 3, 7 days) 293 per 10^5 cells plated; (Exp. 3, 14 days) 317 per 10^5 cells plated. For the same molecule, the “Colony numbers as percentage of colony numbers in medium without extra cytokines, Average” value is, setting by setting: (7 days) 101%; (14 days) 101%.
